From patent US10433548B2, “Biocidal compositions comprising iron chelators” (Arch Chemicals, Inc., priority 2012, dated 2019)
Converted amounts (≈) assume the structure as drawn. Read-outs that look alike come from different tables or passages of the source.

Experiments:
Assay in all cases: Minimum Inhibitory Concentration (MIC) test, 96-well microtiter plate
Type in all cases: cell-based
P. aeruginosa = test system: P. aeruginosa; design: unit not given here
Method: (§1) Activities of antimicrobial compositions of the present invention were tested against a range of typical skin microorganisms in a Minimum Inhibitory Concentration (MIC) test. MICs for the organisms were determined in a standard 96-well microtiter plate assay in Brain Heart Infusion Broth (BHI) for P. acnes; Tryptic Soy Broth (TSB) for the remaining bacteria; Ushijima Broth for M. furfur; Sabouraud Dextrose Broth (SDB) for other fungi. Samples were tested in duplicate on separate plates. For bacteria and fungi plates, samples were serially diluted into double strength media on the microtiter plates. The bacterial or fungal inocula, suspended in sterile deionized water, were then added to the wells in 1:1 ratio to the medium. The final concentration of bacteria in the wells was 5×10^5 CFUs/mL, the final concentration of fungi was 5×10^4 cells or spores/mL. Plates were incubated: anaerobically at 35° C. for 7 days for P. acnes; aerobically at 35° C. for 2 days for the remaining bacteria and aerobically at 35° C. for 7 days for M. furfur; aerobically at 28° C. for 7 days for T. mentagrophytes.

P. faveolarum = test system: P. faveolarum; design: unit not given here
Method: as §1

A. brasiliensis = test system: A. brasiliensis; design: unit not given here
Method: as §1

B. subtilis = test system: B. subtilis; design: unit not given here
Method: as §1

A. pullulans = test system: A. pullulans; design: unit not given here
Method: as §1

C. pyrenoidosa = test system: C. pyrenoidosa; design: unit not given here
R. subcapitata = test system: R. subcapitata; design: unit not given here
P. acnes = details: for MIC: Cutibacterium acnes
Method: as §1

S. aureus = test system: S. aureus; design: unit not given here
Method: as §1

E. hirae = test system: E. hirae; design: unit not given here
Method: as §1

C. albicans = test system: C. albicans; design: unit not given here
Method: as §1

T. mentagrophytes = test system: T. mentagrophytes; design: unit not given here; details: concentration of ZPT; ZPT alone or with potentiator, Molar Eq (Pot:ZPT) 10:1, 8-HQ-Zn 1:1
Method: as §1

M. furfur = test system: M. furfur; design: unit not given here; details: concentration of ZPT; ZPT alone or with potentiator, Molar Eq (Pot:ZPT) 10:1, 8-HQ-Zn 1:1
Method: as §1

S. epidermidis = test system: S. epidermidis; design: unit not given here; details: concentration of ZPT; ZPT alone or with potentiator, Molar Eq (Pot:ZPT) 10:1, 8-HQ-Zn 1:1
Method: as §1

[1] = concentration of BBIT, BBIT alone or with potentiator, Molar Eq (Pot:BBIT) 10:1
[2] = concentration of BIT, BIT alone or with potentiator, Molar Eq (Pot:BIT) 10:1
[3] = concentration of Propiconazole, alone or with potentiator, Molar Eq (Pot:PROP) 10:1
[4] = concentration of IPBC, IPBC alone or with potentiator, Molar Eq (Pot:IPBC) 10:1
[5] = concentration of ZPT, ZPT alone or with potentiator, Molar Eq (Pot:ZPT) 10:1, 8-HQ-Zn 1:1

Compound: CCCCn1sc2ccccc2c1=O [BBIT, butylbenzisothiazolinone]
- MIC P. aeruginosa (P. aeruginosa; [1]): 80.00
- MIC P. faveolarum (P. faveolarum; [1]): 1.25-5
- MIC A. brasiliensis (A. brasiliensis; [1]): 1.25-5
- MIC B. subtilis (B. subtilis; [1]): 1.88-2.5
- MIC A. pullulans (A. pullulans; [1]): 2.5-5
- MIC C. pyrenoidsa (C. pyrenoidosa; [1]): 1.25-2.5
- MIC R. subcapitata (R. subcapitata; [1]): 1.25-15

Compound: O=c1[nH]sc2ccccc12 [BIT, benzisothiazolinone]
- MIC P. aeruginosa (P. aeruginosa; [2]): 32.50
- MIC P. faveolarum (P. faveolarum; [2]): 4.06-16
- MIC A. brasiliensis (A. brasiliensis; [2]): 16-32.5
- MIC B. subtilis (B. subtilis; [2]): 1.02-4
- MIC A. pullulans (A. pullulans; [2]): 4.06-8
- MIC C. pyrenoidsa (C. pyrenoidosa; [2]): 4.06-8
- MIC R. subcapitata (R. subcapitata; [2]): 8.13

Compound: O=C(OOC(=O)c1ccccc1)c1ccccc1 [Benzoyl Peroxide, benzoyl peroxide]
- MIC (P. acnes; Benzoyl Peroxide without chelator or with chelator, Molar Eq. HBED 10×, 8-HQ 5×, DTPA 10×, Desferrioxamine 1×, read-out: MIC values against P. acnes, Benzoyl Peroxide): 200 µg/mL (≈ 826 µM)

Compound: O=C(O)CN(CCN(CC(=O)O)CC(=O)O)CCN(CC(=O)O)CC(=O)O [DTPA, diethylenetriaminepentaacetic acid]
- MIC P. aeruginosa (P. aeruginosa; [1]): 20.00
- MIC P. aeruginosa (P. aeruginosa; [2]): 8.13
- MIC P. faveolarum (P. faveolarum; [1]): 0.16
- MIC P. faveolarum (P. faveolarum; [2]): <0.06
- MIC A. brasiliensis (A. brasiliensis; [1]): 1.25
- MIC A. brasiliensis (A. brasiliensis; [2]): 16.25
- MIC B. subtilis (B. subtilis; [1]): 2.50
- MIC B. subtilis (B. subtilis; [2]): 2.03
- MIC A. pullulans (A. pullulans; [1]): 0.63
- MIC A. pullulans (A. pullulans; [2]): 2.03
- MIC values against P. acnes, Benzoyl Peroxide (P. acnes; Benzoyl Peroxide without chelator or with chelator, Molar Eq. HBED 10×, 8-HQ 5×, DTPA 10×, Desferrioxamine 1×): 6.25 ppm
- MIC values against P. acnes, Salicylic Acid (P. acnes; Salicylic Acid without chelator or with chelator, Molar Eq. HBED 10×, 8-HQ 5×, DTPA 10×, Desferrioxamine 1×): 3.13 ppm
- MIC C. pyrenoidsa (C. pyrenoidosa; [1]): 1.25
- MIC C. pyrenoidsa (C. pyrenoidosa; [2]): 0.51
- MIC R. subcapitata (R. subcapitata; [1]): 0.94
- MIC R. subcapitata (R. subcapitata; [2]): 0.51

Compound: CC(=O)N(O)CCCCCNC(=O)CCC(=O)N(O)CCCCCNC(=O)CCC(=O)N(O)CCCCCN [Desferrioxamine, desferrioxamine]
- MIC (P. acnes; read-out: MIC values against P. acnes, Benzoyl Peroxide): 25 µg/mL (≈ 44.6 µM)
- MIC (P. acnes; read-out: MIC values against P. acnes, Salicylic Acid): 25 µg/mL (≈ 44.6 µM)

Compound: CCCC1COC(Cn2cncn2)(c2ccc(Cl)cc2Cl)O1 (stereo not shown) [Propiconazole, propiconazole]
- MIC P. aeruginosa (P. aeruginosa; [3]): 165.00
- MIC P. faveolarum (P. faveolarum; [3]): 20.63-41.25
- MIC S. aureus (S. aureus; [3]): 82.5-165.00
- MIC E. hirae (E. hirae; [3]): 165.00
- MIC C. albicans (C. albicans; [3]): 41.25-100.00
- MIC C. pyrenoidsa (C. pyrenoidosa; [3]): 20.63-82.5
- MIC R. subcapitata (R. subcapitata; [3]): 20.63-41.25

Compound: O=C(O)c1ccccc1O [Salicylic Acid, salicylic acid]
- MIC (P. acnes; Salicylic Acid without chelator or with chelator, Molar Eq. HBED 10×, 8-HQ 5×, DTPA 10×, Desferrioxamine 1×, read-out: MIC values against P. acnes, Salicylic Acid): 100 µg/mL (≈ 724 µM)

Compound: O=C(CC(=O)C(F)(F)F)c1cccs1.[Zn] [Then-Zn, thenoyl trifluoro acetone zinc salt]
- MIC P. aeruginosa (P. aeruginosa; [2]): 32.50
- MIC P. aeruginosa (P. aeruginosa; [4]): 65.0
- MIC P. faveolarum (P. faveolarum; [2]): 0.13
- MIC P. faveolarum (P. faveolarum; [4]): 0.51
- MIC S. aureus (S. aureus; [4]): 13.25
- MIC E. hirae (E. hirae; [4]): 8.13
- MIC A. brasiliensis (A. brasiliensis; [2]): 32.50
- MIC C. albicans (C. albicans; [4]): 2.03
- MIC B. subtilis (B. subtilis; [2]): 1.52
- MIC B. subtilis (B. subtilis; [4]): 4.06
- MIC A. pullulans (A. pullulans; [2]): 4.06
- MIC C. pyrenoidsa (C. pyrenoidosa; [2]): 2.03
- MIC C. pyrenoidsa (C. pyrenoidosa; [4]): 0.38
- MIC R. subcapitata (R. subcapitata; [2]): 1.02
- MIC R. subcapitata (R. subcapitata; [4]): 1.02

Compound: O=c1cccccc1[O-].O=c1cccccc1[O-].[Zn+2] [Tropolone-Zn, zinc(tropolone)2]
- MIC P. aeruginosa (P. aeruginosa; [1]): 20.00
- MIC P. aeruginosa (P. aeruginosa; [2]): 8.13
- MIC P. aeruginosa (P. aeruginosa; [4]): 32.5
- MIC P. aeruginosa (P. aeruginosa; [3]): 41.25
- MIC P. aeruginosa (P. aeruginosa; [5]): 15.63
- MIC P. faveolarum (P. faveolarum; [1]): 0.23
- MIC P. faveolarum (P. faveolarum; [2]): 0.19
- MIC P. faveolarum (P. faveolarum; [4]): 0.38
- MIC P. faveolarum (P. faveolarum; [3]): 0.32
- MIC P. faveolarum (P. faveolarum; [5]): 0.05
- MIC S. aureus (S. aureus; [4]): 0.51
- MIC S. aureus (S. aureus; [3]): 0.64
- MIC E. hirae (E. hirae; [4]): 0.25
- MIC E. hirae (E. hirae; [3]): 0.32
- MIC A. brasiliensis (A. brasiliensis; [1]): 0.94
- MIC A. brasiliensis (A. brasiliensis; [2]): 1.02
- MIC A. brasiliensis (A. brasiliensis; [5]): 1.95
- MIC T. mentagrophytes (T. mentagrophytes): 0.18
- MIC M. furfur (M. furfur): 0.73
- MIC C. albicans (C. albicans; [4]): 1.02
- MIC C. albicans (C. albicans; [3]): 0.97
- MIC C. albicans (C. albicans; [5]): 0.73
- MIC S. epidermidis (S. epidermidis): 0.18
- MIC B. subtilis (B. subtilis; [1]): 0.31
- MIC B. subtilis (B. subtilis; [2]): 0.13
- MIC B. subtilis (B. subtilis; [4]): 0.51
- MIC B. subtilis (B. subtilis; [3]): 0.64
- MIC B. subtilis (B. subtilis; [5]): 0.24
- MIC A. pullulans (A. pullulans; [1]): 0.31
- MIC A. pullulans (A. pullulans; [2]): 0.24
- MIC C. pyrenoidsa (C. pyrenoidosa; [1]): 1.25
- MIC C. pyrenoidsa (C. pyrenoidosa; [2]): 0.76
- MIC C. pyrenoidsa (C. pyrenoidosa; [4]): 0.51
- MIC C. pyrenoidsa (C. pyrenoidosa; [3]): 2.58
- MIC C. pyrenoidsa (C. pyrenoidosa; [5]): 0.98
- MIC R. subcapitata (R. subcapitata; [1]): 0.94
- MIC R. subcapitata (R. subcapitata; [2]): 1.02
- MIC R. subcapitata (R. subcapitata; [4]): 0.51
- MIC R. subcapitata (R. subcapitata; [3]): 1.29
- MIC R. subcapitata (R. subcapitata; [5]): 0.49

Compound: glucoheptanoic acid zinc salt [Gluco-heptanoate-Zn]
- MIC P. aeruginosa (P. aeruginosa; [1]): 80.00
- MIC P. aeruginosa (P. aeruginosa; [3]): 165.00
- MIC P. faveolarum (P. faveolarum; [1]): 0.16
- MIC P. faveolarum (P. faveolarum; [3]): 1.93
- MIC S. aureus (S. aureus; [3]): 41.25
- MIC E. hirae (E. hirae; [3]): 20.63
- MIC A. brasiliensis (A. brasiliensis; [1]): 2.50
- MIC C. albicans (C. albicans; [3]): 82.50
- MIC B. subtilis (B. subtilis; [1]): 1.25
- MIC B. subtilis (B. subtilis; [3]): 20.63
- MIC A. pullulans (A. pullulans; [1]): 5.00
- MIC C. pyrenoidsa (C. pyrenoidosa; [1]): 1.25
- MIC C. pyrenoidsa (C. pyrenoidosa; [3]): 15.47
- MIC R. subcapitata (R. subcapitata; [1]): 1.88
- MIC R. subcapitata (R. subcapitata; [3]): 0.97

Compound: zinc dihydroxyacetate [DHA-Zn]
- MIC P. aeruginosa (P. aeruginosa; [2]): 32.50
- MIC P. aeruginosa (P. aeruginosa; [3]): 165.00
- MIC P. aeruginosa (P. aeruginosa; [5]): 31.25
- MIC P. faveolarum (P. faveolarum; [2]): 0.25
- MIC P. faveolarum (P. faveolarum; [3]): 1.93
- MIC P. faveolarum (P. faveolarum; [5]): 0.05
- MIC S. aureus (S. aureus; [3]): 41.25
- MIC E. hirae (E. hirae; [3]): 20.63
- MIC A. brasiliensis (A. brasiliensis; [2]): 6.09
- MIC A. brasiliensis (A. brasiliensis; [5]): 7.81
- MIC T. mentagrophytes (T. mentagrophytes): 0.49
- MIC M. furfur (M. furfur): 1.95
- MIC C. albicans (C. albicans; [3]): 0.64
- MIC C. albicans (C. albicans; [5]): 3.91
- MIC S. epidermidis (S. epidermidis): 3.91
- MIC B. subtilis (B. subtilis; [2]): 1.52
- MIC B. subtilis (B. subtilis; [3]): 30.94
- MIC B. subtilis (B. subtilis; [5]): 0.98
- MIC A. pullulans (A. pullulans; [2]): 2.03
- MIC C. pyrenoidsa (C. pyrenoidosa; [2]): 2.03
- MIC C. pyrenoidsa (C. pyrenoidosa; [3]): 10.31
- MIC C. pyrenoidsa (C. pyrenoidosa; [5]): 0.98
- MIC R. subcapitata (R. subcapitata; [2]): 2.03
- MIC R. subcapitata (R. subcapitata; [3]): 1.29
- MIC R. subcapitata (R. subcapitata; [5]): 0.98
